In publication PMC8012331, “Drug-induced hepatic steatosis in absence of severe mitochondrial dysfunction in HepaRG cells: proof of multiple mechanism-based toxicity” (Cell Biology and Toxicology, 2020):

What was measured:
HepaRG cells [1] = experiment: Neutral lipids with Nile red in HepaRG cells; settings: 4 days
Experimental: Briefly, HepaRG cells were seeded in 96-well plates at a density of 2.6 × 10^4 cells/cm^2 and were first incubated in William’s E medium supplemented with 10% FBS (50% FBS from Eurobio and 50% FBS from GE Healthcare), 100 U/mL penicillin, 100 μg/mL streptomycin, 2 mM glutamine, 5 μg/mL insulin, and 50 μM hydrocortisone hemisuccinate. […] During this 1-month period, the culture medium was renewed three times a week. […] HepaRG cells were next cultured in the same FBS/DMSO conditions and incubated for 4 days with each drug at different concentrations. Culture medium was renewed every day and all investigations were performed after 96 h (i.e., 24 h after the fourth treatment). These investigations were mostly performed in 96-well plates except for western blot analysis, for which 6-well plates were used. Experiments were carried out on passages 9 to 16. All drugs (except DPEN), etomoxir, lomitapide, tunicamycin, thapsigargin, and TUDCA were dissolved in DMSO. DPEN was dissolved in water.
Cells were then incubated with PBS containing 0.1 μg/mL Nile red for 30 min and washed once. […] For each well, four pictures were taken at a magnification of × 20 and analyzed with Columbus software (PerkinElmer) for quantification. These pictures were always taken in four different areas around the center of each well, and these areas were the same from one well to another, as programmed by the Columbus software. This software was also designed to count only living cells after exclusion of dying cells harboring nuclei with abnormal shape or altered Hoechst intensity. […] Neutral lipids were then normalized per number of nuclei and expressed relative to control cells. Examples of images used for neutral lipid quantification are shown in Supplementary Fig. 2.

apoB secretion = experiment: apoB level in culture medium (ELISA), HepaRG cells; type: cell-based, human; settings: 4 days; for Effect on apoB secretion: culture medium, vs control
Experimental: (§1) Experiments were carried out on passages 9 to 16. […] DPEN was dissolved in water.
Twenty-four hours after the last treatment, cell supernatants were removed and stored at − 80 °C until use for apolipoprotein measurement. ApoB level was measured using the Human Apolipoprotein B ELISA^pro kit from Mabtech (Nacka Strand, Sweden), according to the manufacturer’s instructions. Briefly, 50 μL of samples were diluted 2× in Apo ELISA buffer before a 2-h incubation in the precoated strip plates provided in the kit. The plates were washed and incubated 1 h with the biotinylated monoclonal anti-human apoB (LDL-11-biotin) antibody. The plates were then washed and incubated 1 h with a streptavidin–horseradish peroxidase conjugated antibody. After another washing, 3,3′,5,5′-tetramethylbenzidine (TMB) was used as substrate for 15 min before adding a stop solution. Absorbance at 450 nm was then measured using a POLARstar Omega microplate reader (BMG Labtech, Ortenberg). ApoB level was calculated utilizing a four-parameter standard curve, and normalized to the total cellular protein content and expressed in comparison to control cells.

HepaRG cells [2] = experiment: Number of nuclei (Hoechst 33342) in HepaRG cells; type: cell-based, human; settings: HepaRG cells treated with TUDCA alone
apolipoprotein B (APOB) = experiment: RT-qPCR APOB mRNA in HepaRG cells; type: cell-based, human; settings: 4 days
Experimental: (§2) Total RNA was extracted with the Nucleospin RNA isolation system purchased from Macherey-Nagel (Düren, Germany), which included a DNase treatment step. Quantification of isolated RNAs was assessed using a Nanodrop 1000 (Thermo Fisher Scientific, Waltham, MA). RNAs were reverse-transcribed into cDNAs using the High-Capacity cDNA Reverse Transcription Kit purchased from Applied Biosystems (Woolston, UK). Gene expression was assessed by real-time quantitative PCR analysis (RT-qPCR) using SYBR Green PCR Master Mix (Applied Biosystems) and a 384-well QuantStudio™ 7 Flex Real-Time PCR System (Thermo Fisher Scientific). Sequences of the primers used to measure gene expression are presented in Supplementary Table 3. Expression of GAPDH was chosen as reference and the 2^−ΔΔCt calculation method was used to express the relative expression of each selected gene.

[3] = test system: mitochondrial fatty acid oxidation (mtFAO); experiment: mtFAO with [U-14C]palmitic acid in HepaRG cells; type: cell-based, human; settings: 4 days, vs control
Experimental: as §1
Results were normalized to total protein content determined using the Pierce BCA assay kit from Thermo Fischer Scientific (Waltham, MA). Results were expressed in comparison to control cells.

[4] = test system: de novo lipogenesis (DNL); experiment: DNL from [2-14C]acetic acid in HepaRG cells; type: cell-based, human; settings: 4 days, vs control
Experimental: as §1
DNL was assessed by measuring newly synthesized radiolabeled lipids from [2-^14C]acetic acid, using a protocol adapted from Byrne et al. ([2014]). Briefly, culture medium was removed and cells were washed with warm PBS. Next, cells were incubated for 3 h with phenol red-free William’s E medium containing 1% fatty acid-free BSA, [2-^14C]acetic acid (1850 Bq per well, corresponding to 19.4 pM) and 50 μM cold acetic acid. Medium was then gently removed and cells were washed with warm PBS before adding a mix of hexane/isopropanol (3:2; v/v). Cell culture plates were sealed and incubated for 1 h at room temperature for lipid extraction. After transfer of the plate content in 200-μL microtubes, hexane and PBS were added to have a hexane/isopropanol/PBS ratio of 6:2:3 (v/v/v). Microtubes were then centrifuged at 1000×g for 5 min and radiolabeled lipids were counted in the upper phase with a Tri-Carb 4910TR liquid scintillation counter (PerkinElmer). Results were normalized to total protein content and expressed in comparison to control cells.

[5] = test system: apolipoprotein C3 (APOC3); experiment: RT-qPCR APOC3 mRNA in HepaRG cells; type: cell-based, human; settings: 4 days, vs control
Experimental: as §2

[6] = test system: microsomal triglyceride transfer protein (MTTP); experiment: RT-qPCR MTTP mRNA in HepaRG cells; type: cell-based, human; settings: 4 days, vs control
Experimental: as §2

[7] = test system: prolyl 4-hydroxylase subunit beta (P4HB, also known as PDI); experiment: RT-qPCR P4HB mRNA in HepaRG cells; type: cell-based, human; settings: 4 days, vs control
Experimental: as §2

[8] = test system: angiopoietin-like 3 (ANGPTL3); experiment: RT-qPCR ANGPTL3 mRNA in HepaRG cells; type: cell-based, human; settings: 4 days, vs control
Experimental: as §2

HSPA5 (BIP) = experiment: RT-qPCR HSPA5 mRNA in HepaRG cells; type: cell-based, human; settings: 4 days, vs control
Experimental: as §2

DDIT3 (CHOP) = experiment: RT-qPCR DDIT3 mRNA in HepaRG cells; type: cell-based, human; settings: 4 days, vs control
Experimental: as §2

ERN1 (IRE1α) = experiment: RT-qPCR ERN1 mRNA in HepaRG cells; type: cell-based, human; settings: 4 days, vs control
Experimental: as §2

[9] = TUDCA 2 or 4 mM with 750 μM ALLO, 300 μM INDO, 300 μM RIF or 10 μM tunicamycin

| Molecule | Effect on neutral lipid accumulation induced by ALLO, INDO, RIF or tunicamycin (HepaRG cells [1]; [9]) | Effect on apoB secretion in cells cotreated with ALLO, INDO, RIF or tunicamycin (apoB secretion; [9]) | Increase in the number of nuclei (HepaRG cells [2]) | Effect on APOB mRNA level in cells cotreated with ALLO, INDO, RIF or tunicamycin (apolipoprotein B (APOB); [9]) | Effect on mtFAO [3] | Effect on DNL [4] | Effect on apoB secretion (apoB secretion) | APOB mRNA level (apolipoprotein B (APOB); vs control) | APOC3 mRNA level [5] | MTTP mRNA level [6] | P4HB (PDI) mRNA level [7] | ANGPTL3 mRNA level [8] | HSPA5 (BIP) mRNA level (HSPA5 (BIP)) | DDIT3 (CHOP) mRNA level (DDIT3 (CHOP)) | ERN1 (IRE1α) mRNA level (ERN1 (IRE1α)) | Accumulation of neutral lipids (steatosis) (HepaRG cells [1]; selected concentrations (ATP loss < 30%, not above 100 × Cmax), vs control) |
| --- | --- | --- | --- | --- | --- | --- | --- | --- | --- | --- | --- | --- | --- | --- | --- | --- |
| C[C@H](CCC(=O)NCCS(=O)(=O)O)[C@H]1CC[C@H]2[C@@H]3[C@@H](O)C[C@@H]4C[C@H](O)CC[C@]4(C)[C@H]3CC[C@]12C [TUDCA, tauroursodeoxycholic acid] | alleviate neutral lipid accumulation | improved apoB secretion | 38% | higher apoB mRNA level |  |  |  |  |  |  |  |  |  |  |  |  |
| C/C=C(/C)C(=O)O[C@H]1C(C)=C2[C@H]([C@@H]1OC(=O)CCCCCCC)[C@@](C)(OC(C)=O)C[C@H](OC(=O)CCC)[C@@]1(O)[C@H]2OC(=O)[C@@]1(C)O [thapsigargin] |  |  |  |  | increased mtFAO | strongly reduced DNL | reduced secretion of apoB | also reduced APOB mRNA abundance | reduced the mRNA level | reduced the mRNA level | induced | reduced the mRNA level | augmented the mRNA level | augmented the mRNA level | augmented the mRNA level |  |
| tunicamycin |  |  |  |  | increased mtFAO | strongly reduced DNL | reduced secretion of apoB |  | reduced the mRNA level | reduced the mRNA level | induced | reduced the mRNA level | augmented the mRNA level | augmented the mRNA level | augmented the mRNA level | increased neutral lipids |
